# Target: T1, cereblon (CRBN) (Homo sapiens, UniProt Q96SW2)
# T1 construct: biotinylated CRBN (wheat cell-free); with SALL4
# Test: AlphaScreen-based ternary complex formation, dose-dependent, in cell-free translation mixtures
# T1 sequence (Q96SW2 whole entry): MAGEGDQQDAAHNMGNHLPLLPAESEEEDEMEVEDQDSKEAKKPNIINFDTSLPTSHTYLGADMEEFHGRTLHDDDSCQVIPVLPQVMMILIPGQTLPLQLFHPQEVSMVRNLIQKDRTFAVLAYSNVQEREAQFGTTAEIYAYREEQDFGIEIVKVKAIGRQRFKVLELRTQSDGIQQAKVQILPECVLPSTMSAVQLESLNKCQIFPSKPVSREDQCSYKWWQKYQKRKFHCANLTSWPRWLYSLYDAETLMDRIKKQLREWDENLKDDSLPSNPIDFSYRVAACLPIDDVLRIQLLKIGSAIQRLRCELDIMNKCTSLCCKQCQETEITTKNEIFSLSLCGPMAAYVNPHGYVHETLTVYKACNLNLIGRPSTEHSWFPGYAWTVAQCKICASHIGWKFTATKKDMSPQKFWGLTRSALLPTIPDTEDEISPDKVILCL
# T1 sequence (Q9UJQ4 whole entry partner): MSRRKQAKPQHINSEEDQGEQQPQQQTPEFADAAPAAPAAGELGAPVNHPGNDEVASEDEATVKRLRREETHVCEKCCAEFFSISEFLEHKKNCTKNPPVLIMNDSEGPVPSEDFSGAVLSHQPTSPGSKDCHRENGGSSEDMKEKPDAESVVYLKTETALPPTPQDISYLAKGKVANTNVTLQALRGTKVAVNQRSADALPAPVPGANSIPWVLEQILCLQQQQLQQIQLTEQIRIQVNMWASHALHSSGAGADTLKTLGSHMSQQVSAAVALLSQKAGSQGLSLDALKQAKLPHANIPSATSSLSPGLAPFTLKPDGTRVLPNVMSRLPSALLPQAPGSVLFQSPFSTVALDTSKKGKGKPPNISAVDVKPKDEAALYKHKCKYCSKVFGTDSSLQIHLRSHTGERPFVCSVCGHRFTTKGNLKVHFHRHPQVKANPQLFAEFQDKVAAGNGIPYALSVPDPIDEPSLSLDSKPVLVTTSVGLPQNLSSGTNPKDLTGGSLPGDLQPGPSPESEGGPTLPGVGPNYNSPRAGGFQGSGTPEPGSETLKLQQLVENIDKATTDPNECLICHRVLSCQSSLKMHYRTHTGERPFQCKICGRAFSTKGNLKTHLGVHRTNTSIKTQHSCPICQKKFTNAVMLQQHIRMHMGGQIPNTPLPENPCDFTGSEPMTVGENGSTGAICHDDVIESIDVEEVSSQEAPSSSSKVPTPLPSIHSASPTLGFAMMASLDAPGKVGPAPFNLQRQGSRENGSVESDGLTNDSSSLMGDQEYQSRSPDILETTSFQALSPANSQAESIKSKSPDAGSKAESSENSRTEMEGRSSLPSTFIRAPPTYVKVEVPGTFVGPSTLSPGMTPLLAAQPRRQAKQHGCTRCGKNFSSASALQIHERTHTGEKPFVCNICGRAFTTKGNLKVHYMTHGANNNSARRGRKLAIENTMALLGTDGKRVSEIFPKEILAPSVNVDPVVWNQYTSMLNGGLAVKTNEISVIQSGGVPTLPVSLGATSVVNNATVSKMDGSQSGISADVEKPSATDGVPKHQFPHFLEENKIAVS
structure (smiles),measurement,value
"Nc1c(O)ccc2c1C(=O)N(C1CCC(=O)NC1=O)C2=O (stereo not shown) [5HP, 5-hydroxypomalidomide]","AlphaScreen-based ternary complex formation, dose-dependent, in cell-free transl","Dose-dependent interaction of CRBN with SALL4 (left) and IKZF1 (right), as observed with the titration of racemate, Pom, and 5HP"
